The values that follow are results of earlier work, collected in US9463180B2, “Treatment of molluscum contagiosum” (QUADEX PHARMACEUTICALS, LLC, priority 2013, dated 2016).

Molecules are shown by their SMILES.

The subject of this series is molluscum contagiosum. The conditions noted are these: small studies; applied 3 times per week, left on skin 6 to 10 hours.

For `CC(C)Cn1cnc2c(N)nc3ccccc3c21` [Imiquimod], the success rate entry is “about 80%”.
